From the NIST ThermoML archive (doi:10.1016/j.fluid.2015.12.007)
± gives the expanded uncertainty stated by the source.

Assay: xn = mol fraction of the nth substance listed
Conditions: 101 kPa, Liquid; for speed of sound: Sing-around technique in a fixed-path interferometer; for mass density: Vibrating tube method

CC(O)CO (centres undefined) [1,2-propanediol] + CCCCn1cc[n+](C)c1.F[B-](F)(F)F
Conditions	mass density [kg/m3]	speed of sound [m/s]
293.15 K, x2 = 0.0521	1056.41 ± 0.14	1527.9 ± 1.3
293.15 K, x2 = 0.1068	1074.4 ± 0.14	1532.7 ± 1.3
293.15 K, x2 = 0.2089	1101.55 ± 0.15	1538.5 ± 1.3
293.15 K, x2 = 0.3074	1122.27 ± 0.16	1543.9 ± 1.3
293.15 K, x2 = 0.4035	1139.05 ± 0.16	1549.8 ± 1.3
293.15 K, x2 = 0.5031	1153.8 ± 0.17	1554.6 ± 1.3
293.15 K, x2 = 0.5907	1164.95 ± 0.16	1559 ± 1.3
293.15 K, x2 = 0.7031	1177.42 ± 0.15	1564.6 ± 1.2
293.15 K, x2 = 0.8	1187.25 ± 0.15	1568.6 ± 1.2
293.15 K, x2 = 0.8992	1196.18 ± 0.15	1572 ± 1.2
298.15 K, x2 = 0.0521	1052.69 ± 0.14	1515.3 ± 1.3
298.15 K, x2 = 0.1068	1070.64 ± 0.14	1520 ± 1.3
298.15 K, x2 = 0.2089	1097.72 ± 0.15	1526.2 ± 1.3
298.15 K, x2 = 0.3074	1118.42 ± 0.16	1531.5 ± 1.3
298.15 K, x2 = 0.4035	1135.23 ± 0.16	1537.5 ± 1.3
298.15 K, x2 = 0.5031	1150.01 ± 0.17	1542.5 ± 1.3
298.15 K, x2 = 0.5907	1161.21 ± 0.16	1547 ± 1.3
298.15 K, x2 = 0.7031	1173.74 ± 0.15	1552.6 ± 1.2
298.15 K, x2 = 0.8	1183.62 ± 0.15	1556.7 ± 1.2
298.15 K, x2 = 0.8992	1192.57 ± 0.15	1560.5 ± 1.2
303.15 K, x2 = 0.0521	1048.94 ± 0.14	1502.2 ± 1.3
303.15 K, x2 = 0.1068	1066.85 ± 0.14	1507 ± 1.3
303.15 K, x2 = 0.2089	1093.89 ± 0.15	1513.8 ± 1.3
303.15 K, x2 = 0.3074	1114.58 ± 0.16	1519.2 ± 1.3
303.15 K, x2 = 0.4035	1131.41 ± 0.16	1525.3 ± 1.3
303.15 K, x2 = 0.5031	1146.23 ± 0.16	1530.3 ± 1.3
303.15 K, x2 = 0.5907	1157.48 ± 0.16	1535 ± 1.2
303.15 K, x2 = 0.7031	1170.07 ± 0.15	1540.7 ± 1.2
303.15 K, x2 = 0.8	1180 ± 0.15	1544.9 ± 1.2
303.15 K, x2 = 0.8992	1188.99 ± 0.15	1549 ± 1.2
308.15 K, x2 = 0.0521	1045.16 ± 0.14	1488.9 ± 1.3
308.15 K, x2 = 0.1068	1063.06 ± 0.14	1494 ± 1.3
308.15 K, x2 = 0.2089	1090.06 ± 0.15	1501.1 ± 1.3
308.15 K, x2 = 0.3074	1110.75 ± 0.16	1506.8 ± 1.3
308.15 K, x2 = 0.4035	1127.62 ± 0.16	1513.1 ± 1.3
308.15 K, x2 = 0.5031	1142.48 ± 0.16	1518.2 ± 1.3
308.15 K, x2 = 0.5907	1153.77 ± 0.16	1523 ± 1.2
308.15 K, x2 = 0.7031	1166.42 ± 0.15	1528.9 ± 1.2
308.15 K, x2 = 0.8	1176.39 ± 0.15	1533.2 ± 1.2
308.15 K, x2 = 0.8992	1185.42 ± 0.15	1537.5 ± 1.2
313.15 K, x2 = 0.0521	1041.36 ± 0.14	1475.6 ± 1.3
313.15 K, x2 = 0.1068	1059.24 ± 0.14	1481.1 ± 1.3
313.15 K, x2 = 0.2089	1086.22 ± 0.15	1488.5 ± 1.3
313.15 K, x2 = 0.3074	1106.92 ± 0.16	1494.5 ± 1.3
313.15 K, x2 = 0.4035	1123.83 ± 0.16	1501 ± 1.3
313.15 K, x2 = 0.5031	1138.74 ± 0.16	1506.2 ± 1.3
313.15 K, x2 = 0.5907	1150.08 ± 0.15	1511.1 ± 1.2
313.15 K, x2 = 0.7031	1162.79 ± 0.15	–
313.15 K, x2 = 0.8	1172.81 ± 0.15	1521.7 ± 1.2
313.15 K, x2 = 0.8992	1181.86 ± 0.15	1526.1 ± 1.2
318.15 K, x2 = 0.0521	1037.53 ± 0.13	1462.3 ± 1.3
318.15 K, x2 = 0.1068	1055.4 ± 0.14	1468.1 ± 1.3
318.15 K, x2 = 0.2089	1082.38 ± 0.15	1476 ± 1.3
318.15 K, x2 = 0.3074	1103.1 ± 0.15	1482.3 ± 1.3
318.15 K, x2 = 0.4035	1120.04 ± 0.16	1488.9 ± 1.3
318.15 K, x2 = 0.5031	1135.01 ± 0.16	1494.3 ± 1.2
318.15 K, x2 = 0.5907	1146.4 ± 0.15	1499.4 ± 1.2
318.15 K, x2 = 0.7031	1159.17 ± 0.15	1505.6 ± 1.2
318.15 K, x2 = 0.8	1169.23 ± 0.15	1510.3 ± 1.2
318.15 K, x2 = 0.8992	1178.32 ± 0.15	1515 ± 1.2
